# Experimental data taken from patent US20230271947A1, “SALT AND CRYSTAL FORM OF KETOHEXOKINASE INHIBITOR AND USE THEREOF” (SHANDONG XUANZHU PHARMA CO., LTD., priority 2020, published 2023).
# Test: Stability investigation of crystal forms A, B, C, D and the amorphous form of the compound of formula (1) (related substances by HPLC, moisture, XRD, DSC)
# Type: physicochemical
# Settings: for Stability, testing conclusion: under the above conditions (all placement conditions of the study)
# Procedure: 2.1 Investigation conditions for the crystal form A of the compound of formula (1): • placed at 105° C. for 5 days, opened, and sampled for testing on day 5; • placed at 60° C. for 10 days, opened/closed, and sampled for testing on day 10; • placed at 25° C. and RH 92.5% for 10 days, opened/closed, and sampled for testing on day 10; • placed at 40° C. and RH 75% for one month, opened/closed, and sampled for testing on the last day of the month; and • under illumination, employing a closed way (polyethylene bag + composite film bag) to meet illumination requirements, and sampled for testing.
# Illumination requirements: ICH Q1B Stability Testing: Photostability Testing of New Drug Substances and Products.
# Determination of related substances: determined according to 0512 HPLC in General Principle (Volume IV) of Chinese Pharmacopoeia (2015 Version).
# Moisture determination: determined according to 2 Coulometric Titration in the First Method (Karl Fischer titration) of 0832 Moisture Determination Method in General Principle (Volume IV) of Chinese Pharmacopoeia (2015 Version).
# XRD determination: determined according to the Second Method-Powder X-ray Diffraction Method of 0451 X-ray Diffraction Method in General Principle (Volume IV) of Chinese Pharmacopoeia (2015 Version).
# DSC determination: precisely weighing an appropriate amount of sample in a Standard disc, covering the Standard disc, placing the Standard disc in a sample disc position in a DSC furnace, placing a blank disc of the same type in a reference position, and carrying out the following temperature rise program:
# 1. Equilibrate at 25° C.; and
# 2.1 Investigation conditions for the crystal form B of the compound of formula (1): • placed at 105° C. for 5 days, opened, and sampled for testing on day 5; • placed at 60° C. for 10 days, opened/closed, and sampled for testing on day 10; • placed at 25° C. and RH 92.5% for 10 days, opened/closed, and sampled for testing on day 10; • placed at 40° C. and RH 75% for one month, opened/closed, and sampled for testing on the last day of the month; and • under illumination, employing a closed way (polyethylene bag + composite film bag) to meet illumination requirements, and sampled for testing.
# 2.1 Investigation conditions for the crystal form C of the compound of formula (1): • placed at 105° C. for 5 days, opened, and sampled for testing on day 5; • placed at 60° C. for 10 days, opened/closed, and sampled for testing on day 10; • placed at 25° C. and RH 92.5% for 10 days, opened/closed, and sampled for testing on day 10; • placed at 40° C. and RH 75% for one month, opened/closed, and sampled for testing on the last day of the month; and • under illumination, employing a closed way (polyethylene bag + composite film bag) to meet illumination requirements, and sampled for testing.
# 1. Equilibrate at 25° C.; and 2. Ramp 10° C. to 200° C.
# 2.1 Investigation conditions for the crystal form D of the compound of formula (1): • placed at 105° C. for 5 days, opened, and sampled for testing on day 5; • placed at 60° C. for 10 days, opened/closed, and sampled for testing on day 10; • placed at 25° C. and RH 92.5% for 10 days, opened/closed, and sampled for testing on day 10; • placed at 40° C. and RH 75% for one month, opened/closed, and sampled for testing on the last day of the month; and • under illumination, employing a closed way (polyethylene bag + composite film bag) to meet illumination requirements, and sampled for testing.
# 2.1 Investigation conditions for the amorphous form of the compound of formula (1): • placed at 60° C. for 10 days, opened/closed, and sampled for testing on day 10; • placed at 25° C. and RH 92.5% for 10 days, opened/closed, and sampled for testing on day 10; • placed at 40° C. and RH 75% for one month, opened/closed, and sampled for testing on the last day of the month; and • under illumination, employing a closed way (polyethylene bag + composite film bag) to meet illumination requirements, and sampled for testing.
# [1] = 25° C., RH 92.5%, closed, 10 days
# [2] = 25° C., RH 92.5%, opened, 10 days
smiles,measurement,setting,value
"C[C@H]1CCN1c1nc(N2C[C@@H]3[C@@H](CC(=O)O)[C@@H]3C2)c2c(n1)C(F)(F)CC2 [Amorphous form, 2-((1R,5S,6R)-3-(7,7-difluoro-2-((S)-2-methylazetidin-1-yl)-6,7-dihydro-5H-cyclopenta[d]pyrimidin-4-yl)-3-azabicyclo[3.1.0]hexan-6-yl)acetic acid]",Moisture %,0 day,0.70%
same,Total related %,0 day,0.21%
same,Trait,0 day,Off-white power
same,Moisture %,[1],2.8%
same,Total related %,[1],0.35%
same,Trait,[1],Off-white power
same,Moisture %,[2],3.1%
same,Total related %,[2],0.38%
same,Trait,[2],Off-white power
same,Moisture %,"40° C., RH 75%, closed, 1 M",2.1%
same,Total related %,"40° C., RH 75%, closed, 1 M",2.98%
same,Trait,"40° C., RH 75%, closed, 1 M",Off-white power
same,Moisture %,"40° C., RH 75%, opened, 1 M",1.9%
same,Total related %,"40° C., RH 75%, opened, 1 M",2.86%
same,Trait,"40° C., RH 75%, opened, 1 M",Off-white power
same,Moisture %,"60° C., closed, 10 days",0.73%
same,Total related %,"60° C., closed, 10 days",3.92%
same,Trait,"60° C., closed, 10 days",Off-white power
same,Moisture %,"60° C., opened, 10 days",0.56%
same,Total related %,"60° C., opened, 10 days",4.30%
same,Trait,"60° C., opened, 10 days",Off-white power
same,Moisture %,Avoid light for 18 days,1.26%
same,Total related %,Avoid light for 18 days,0.42%
same,Trait,Avoid light for 18 days,Off-white power
same,"Stability, testing conclusion",,"less stable than that of the crystal form A, the crystal form B, the crystal form C and the crystal form D"
"C[C@H]1CCN1c1nc(N2C[C@@H]3[C@@H](CC(=O)O)[C@@H]3C2)c2c(n1)C(F)(F)CC2 [Crystal form A, 2-((1R,5S,6R)-3-(7,7-difluoro-2-((S)-2-methylazetidin-1-yl)-6,7-dihydro-5H-cyclopenta[d]pyrimidin-4-yl)-3-azabicyclo[3.1.0]hexan-6-yl)acetic acid]",DSC,0 day,170.33 °C
same,Moisture %,0 day,0.53%
same,Total related %,0 day,0.18%
same,Trait,0 day,Off-white power
same,DSC,[1],170.42 °C
same,Moisture %,[1],0.54%
same,Total related %,[1],0.24%
same,Trait,[1],Off-white power
same,XRD,[1],Same as day 0
same,DSC,[2],170.23 °C
same,Moisture %,[2],0.54%
same,Total related %,[2],0.24%
same,Trait,[2],Off-white power
same,XRD,[2],Same as day 0
same,DSC,"40° C., RH 75%, closed, 1 M",170.38 °C
same,Moisture %,"40° C., RH 75%, closed, 1 M",0.57%
same,Total related %,"40° C., RH 75%, closed, 1 M",0.22%
same,Trait,"40° C., RH 75%, closed, 1 M",Off-white power
same,XRD,"40° C., RH 75%, closed, 1 M",Same as day 0
same,DSC,"40° C., RH 75%, opened, 1 M",170.32 °C
same,Moisture %,"40° C., RH 75%, opened, 1 M",0.46%
same,Total related %,"40° C., RH 75%, opened, 1 M",0.24%
same,Trait,"40° C., RH 75%, opened, 1 M",Off-white power
same,XRD,"40° C., RH 75%, opened, 1 M",Same as day 0
same,DSC,"60° C., closed, 10 days",170.34 °C
same,Moisture %,"60° C., closed, 10 days",0.61%
same,Total related %,"60° C., closed, 10 days",0.24%
same,Trait,"60° C., closed, 10 days",Off-white power
same,XRD,"60° C., closed, 10 days",Same as day 0
same,DSC,"60° C., opened, 10 days",170.26 °C
same,Moisture %,"60° C., opened, 10 days",0.54%
same,Total related %,"60° C., opened, 10 days",0.25%
same,Trait,"60° C., opened, 10 days",Off-white power
same,XRD,"60° C., opened, 10 days",Same as day 0
same,DSC,"105° C., opened, 5 days",170.65 °C
same,Moisture %,"105° C., opened, 5 days",0.54%
same,Total related %,"105° C., opened, 5 days",0.30%
same,Trait,"105° C., opened, 5 days",Off-white power
same,XRD,"105° C., opened, 5 days",Same as day 0
same,DSC,Avoid light for 18 days,170.20 °C
same,Moisture %,Avoid light for 18 days,0.47%
same,Total related %,Avoid light for 18 days,0.19%
same,Trait,Avoid light for 18 days,Off-white power
same,XRD,Avoid light for 18 days,Same as day 0
same,"Stability, testing conclusion",,relatively stable
"C[C@H]1CCN1c1nc(N2C[C@@H]3[C@@H](CC(=O)O)[C@@H]3C2)c2c(n1)C(F)(F)CC2 [Crystal form B, 2-((1R,5S,6R)-3-(7,7-difluoro-2-((S)-2-methylazetidin-1-yl)-6,7-dihydro-5H-cyclopenta[d]pyrimidin-4-yl)-3-azabicyclo[3.1.0]hexan-6-yl)acetic acid]",DSC,0 day,169.28 °C
same,Moisture %,0 day,0.17%
same,Total related %,0 day,0.08%
same,Trait,0 day,White powder
same,DSC,[1],169.47 °C
same,Moisture %,[1],0.35%
same,Total related %,[1],0.10%
same,Trait,[1],White powder
same,XRD,[1],Same as day 0
same,DSC,[2],169.31 °C
same,Moisture %,[2],0.26%
same,Total related %,[2],0.10%
same,Trait,[2],White powder
same,XRD,[2],Same as day 0
same,DSC,"40° C., RH 75%, closed, 1 M",169.57 °C
same,Moisture %,"40° C., RH 75%, closed, 1 M",0.39%
same,Total related %,"40° C., RH 75%, closed, 1 M",0.08%
same,Trait,"40° C., RH 75%, closed, 1 M",White powder
same,XRD,"40° C., RH 75%, closed, 1 M",Same as day 0
same,DSC,"40° C., RH 75%, opened, 1 M",169.43 °C
same,Moisture %,"40° C., RH 75%, opened, 1 M",0.35%
same,Total related %,"40° C., RH 75%, opened, 1 M",0.09%
same,Trait,"40° C., RH 75%, opened, 1 M",White powder
same,XRD,"40° C., RH 75%, opened, 1 M",Same as day 0
same,DSC,"60° C., closed, 10 days",169.35 °C
same,Moisture %,"60° C., closed, 10 days",0.21%
same,Total related %,"60° C., closed, 10 days",0.11%
same,Trait,"60° C., closed, 10 days",White powder
same,XRD,"60° C., closed, 10 days",Same as day 0
same,DSC,"60° C., opened, 10 days",169.27 °C
same,Moisture %,"60° C., opened, 10 days",0.26%
same,Total related %,"60° C., opened, 10 days",0.13%
same,Trait,"60° C., opened, 10 days",White powder
same,XRD,"60° C., opened, 10 days",Same as day 0
same,DSC,"105° C., opened, 5 days",169.53 °C ° C.
same,Moisture %,"105° C., opened, 5 days",0.28%
same,Total related %,"105° C., opened, 5 days",0.22%
same,Trait,"105° C., opened, 5 days",White powder
same,XRD,"105° C., opened, 5 days",Same as day 0
same,DSC,Avoid light for 18 days,169.15 °C
same,Moisture %,Avoid light for 18 days,0.17%
same,Total related %,Avoid light for 18 days,0.07%
same,Trait,Avoid light for 18 days,White powder
same,XRD,Avoid light for 18 days,Same as day 0
same,"Stability, testing conclusion",,relatively stable
